According to paper PMC6934184, “Selective DNA-PKcs inhibition extends the therapeutic index of localized radiotherapy and chemotherapy” (The Journal of Clinical Investigation, 2019):

Molecular target: T1, PLK3 (Homo sapiens, UniProt Q9H4B4)
T1 construct: purchased Thermo Fisher Scientific (Life Technologies) SelectScreen
Experiment: SelectScreen Z'LYTE
Assay type: biochemical
Method in brief: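 Percent values come from Thermo SelectScreen profiling of NU5455, combining activity and binding assays. CSF1R was run in Z'LYTE format at Km app ATP, and CAMK1 in Adapta format with ATP listed at 10.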

T1 sequence (Q9H4B4 whole entry): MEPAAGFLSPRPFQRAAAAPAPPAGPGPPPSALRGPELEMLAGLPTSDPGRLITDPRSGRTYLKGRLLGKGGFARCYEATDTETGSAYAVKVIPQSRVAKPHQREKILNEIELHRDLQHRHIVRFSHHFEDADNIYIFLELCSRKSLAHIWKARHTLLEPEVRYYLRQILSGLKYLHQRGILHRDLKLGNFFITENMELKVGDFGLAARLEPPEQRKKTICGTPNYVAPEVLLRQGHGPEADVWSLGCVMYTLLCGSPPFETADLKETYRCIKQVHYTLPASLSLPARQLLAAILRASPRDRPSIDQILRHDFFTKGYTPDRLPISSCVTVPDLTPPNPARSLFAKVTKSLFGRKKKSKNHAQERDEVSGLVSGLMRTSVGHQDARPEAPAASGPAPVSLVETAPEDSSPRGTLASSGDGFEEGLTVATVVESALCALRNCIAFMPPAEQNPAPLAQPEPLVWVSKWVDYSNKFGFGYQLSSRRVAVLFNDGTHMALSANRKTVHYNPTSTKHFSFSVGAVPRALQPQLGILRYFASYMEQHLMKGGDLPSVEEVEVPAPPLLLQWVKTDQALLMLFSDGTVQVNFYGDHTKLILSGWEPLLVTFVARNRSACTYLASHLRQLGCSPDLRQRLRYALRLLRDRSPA

For `CN(C(=O)CN1CCOCC1)c1ccc2sc3c(-c4cccc5c(=O)cc(N6CC7CCC(C6)O7)oc45)cccc3c2c1` [NU5455], the inhibition at 1 µM was -18.2%.
